Consider four molecules from patent US5405849A, “Angiotensin II receptor blocking 2,3,6 substituted quinazolinones” (American Cyanamid Company, priority 1993, dated 1995).

Where a name gives a salt, the structure may show the parent alone.

The assay concerns angiotensin II (AII) vasopressor response. Nature of the assay: AII challenge: antagonism of the vasopressor response of angiotensin II in conscious Okamoto-Aoki SHR. Particulars: for inhibition in vivo at 1 mg/kg / inhibition in vivo at 2 mg/kg / inhibition in vivo at 5 mg/kg: Rattus norvegicus; for inhibition in vivo at 5 mg/kg: po. The assay is classed as in vivo, rat (Okamoto-Aoki SHR). An excerpt: Conscious Male Okamoto-Aoki SHR, 16-20 weeks old, weighing approximately 330 g are purchased from Charles River Labs (Wilmington, Mass.). Conscious rats are restrained in a supine position with elastic tape. The area at the base of the tail is locally anesthetized by subcutaneous infiltration with 2% procaine. The ventral caudal artery and vein are isolated, and a cannula made of polyethylene (PE) 10-20 tubing (fused together by heat) is passed into the lower abdominal aorta and vena cava, respectively. The cannula is secured, heparinized (1,000 I.U./ml), sealed and the wound is closed. The animals are placed in plastic restraining cages in an upright position. The cannula is attached to a Statham P23Db pressure transducer, and pulsatile blood pressure is recorded to 10-15 minutes with a Gould Brush recorder.
Angiotensin II (human sequence, Sigma Chem. Co., St. Louis, Mo.) of 0.05 and 0.1 ug/kg i.v. is injected into all rats (predosing response). Then a test compound, vehicle or a known angiotensin II antagonist is administered i.v., i.p. or orally to each set of rats. […] The vasopressor response of angiotensin II is measured for the increase in systolic blood pressure in mmHg. The percentage of antagonism or blockade of the vasopressor response of angiotensin II by a compound is calculated using the vasopressor response (increase in systolic blood pressure) of angiotensin II of each rat predosing the compound as 100%.

Where [1] appears, read: 1 mg/kg iv, AII .1 ug/kg, 30 min.
[2] abbreviates: 2 mg/kg iv, AII .05 ug/kg, 180 min.
Setting [3] is: iv, 0.5 h, 1 mg/kg iv, AII .1 ug/kg, 30 min.
[4] abbreviates: iv, 0.75 h, 1 mg/kg iv, AII .1 ug/kg, 45 min.
[5] abbreviates: iv, 1.5 h, 1 mg/kg iv, AII .05 ug/kg, 90 min.
Where [6] appears, read: iv, 1.5 h, 1 mg/kg iv, AII .1 ug/kg, 90 min.
Where [7] appears, read: iv, 2 h, 2 mg/kg iv, AII .05 ug/kg, 120 min.
[8] abbreviates: iv, 2 h, 2 mg/kg iv, AII .1 ug/kg, 120 min.
[9] abbreviates: iv, 2.5 h, 2 mg/kg iv, AII .05 ug/kg, 150 min.
Where [10] appears, read: iv, 3 h, 2 mg/kg iv, AII .05 ug/kg, 180 min.
The mark [11] stands for this setting: iv, 3 h, 2 mg/kg iv, AII .1 ug/kg, 180 min.
Setting [12] is: 0.5 h, 5 mg/kg oral, AII .05 ug/kg, 30 min.
Where [13] appears, read: 0.5 h, 5 mg/kg oral, AII .1 ug/kg, 30 min.
Where [14] appears, read: 1.5 h, 5 mg/kg oral, AII .05 ug/kg, 90 min.
The mark [15] stands for this setting: 1.5 h, 5 mg/kg oral, AII .1 ug/kg, 90 min.
Setting [16] is: 2.5 h, 5 mg/kg oral, AII .05 ug/kg, 150 min.
Where [17] appears, read: 2.5 h, 5 mg/kg oral, AII .1 ug/kg, 150 min.

A word on the inhibition in vivo: it is the share of the control response that was lost under treatment. Read a low inhibition in vivo as a response near the control. Consider `CCCCc1nc2ccc(C(O)c3ccccc3)cc2c(=O)n1Cc1ccc(-c2ccccc2-c2nnn[nH]2)cc1` (centres unmarked) [Example 54], for which the “Response change (systolic BP increase to AII)” value reads like this: under setting [1], 35 mmHg; under setting [2], 17 mmHg; (5 mg/kg oral, AII .05 ug/kg, 180 min) 25 mmHg; (5 mg/kg oral, AII .1 ug/kg, 180 min) 48 mmHg. The inhibition in vivo at 1 mg/kg runs as follows: (iv, 0.5 h, 1 mg/kg iv, AII .05 ug/kg, 30 min) 47%; under setting [3], 30%; (iv, 0.75 h, 1 mg/kg iv, AII .05 ug/kg, 45 min) 75%; under setting [4], 28%; under setting [5], 49%; under setting [6], 34%. Besides, the inhibition in vivo at 2 mg/kg is, setting by setting: under setting [7], 85%; under setting [8], 64%; under setting [9], 67%; (iv, 2.5 h, 2 mg/kg iv, AII .1 ug/kg, 150 min) 54%; under setting [10], 69%; under setting [11], 50%. The same molecule showed an inhibition in vivo at 5 mg/kg (3 h, 5 mg/kg oral, AII .05 ug/kg, 180 min) of 55% and an inhibition in vivo at 5 mg/kg (3 h, 5 mg/kg oral, AII .1 ug/kg, 180 min) of 26%.

Turning to `CCCCc1nc2ccc(C(C)(C)O)cc2c(=O)n1Cc1ccc(-c2ccccc2-c2nnn[nH]2)cc1` [Example 61, 2-Butyl-6-(1-hydroxy-1-methylethyl)-3-[[2'-(1H-(tetrazol-5-yl) [1,1'-biphenyl]-4-yl]methyl]-4(3H)-quinazolinone monosodium salt], the “Response change (systolic BP increase to AII)” value by setting is: (1 mg/kg iv, AII .05 ug/kg, 30 min) 40 mmHg; (1 mg/kg iv, AII .05 ug/kg, 45 min) 25 mmHg; (1 mg/kg iv, AII .05 ug/kg, 90 min) 45 mmHg; under setting [1], 55 mmHg; (1 mg/kg iv, AII .1 ug/kg, 45 min) 40 mmHg; (1 mg/kg iv, AII .1 ug/kg, 90 min) 65 mmHg. Also, the “Response change (systolic BP increase to AII)” value is, setting by setting: (2 mg/kg iv, AII .025 ug/kg, 30 min) 0 mmHg; (2 mg/kg iv, AII .025 ug/kg, 90 min) 0 mmHg; (2 mg/kg iv, AII .025 ug/kg, 150 min) 0 mmHg; (2 mg/kg iv, AII .05 ug/kg, 30 min) 0 mmHg; (2 mg/kg iv, AII .05 ug/kg, 90 min) 0 mmHg; (2 mg/kg iv, AII .05 ug/kg, 120 min) 25 mmHg. Also, the “Response change (systolic BP increase to AII)” value came out at 40 mmHg under setting [2]; 0 mmHg (2 mg/kg iv, AII .1 ug/kg, 30 min); 0 mmHg (2 mg/kg iv, AII .1 ug/kg, 90 min); 50 mmHg (2 mg/kg iv, AII .1 ug/kg, 120 min); 45 mmHg (2 mg/kg iv, AII .1 ug/kg, 180 min). Also, the inhibition in vivo at 1 mg/kg is, setting by setting: (0.5 h, 1 mg/kg iv, AII .05 ug/kg, 30 min) 20%; (0.75 h, 1 mg/kg iv, AII .05 ug/kg, 45 min) 50%; under setting [3], 8%; under setting [4], 33%; under setting [5], 10%; under setting [6], 8%. This molecule displayed an inhibition in vivo at 2 mg/kg (2.5 h, 2 mg/kg iv, AII .05 ug/kg, 150 min) of 30%; an inhibition in vivo at 2 mg/kg (iv, 0.5 h, 2 mg/kg iv, AII .025 ug/kg, 30 min) of 100%; an inhibition in vivo at 2 mg/kg (iv, 0.5 h, 2 mg/kg iv, AII .05 ug/kg, 30 min) of 100%; an inhibition in vivo at 2 mg/kg (iv, 0.5 h, 2 mg/kg iv, AII .1 ug/kg, 30 min) of 100%; an inhibition in vivo at 2 mg/kg (iv, 1.5 h, 2 mg/kg iv, AII .025 ug/kg, 90 min) of 100%; an inhibition in vivo at 2 mg/kg (iv, 1.5 h, 2 mg/kg iv, AII .05 ug/kg, 90 min) of 100%. Moreover, the inhibition in vivo at 2 mg/kg runs as follows: (iv, 1.5 h, 2 mg/kg iv, AII .1 ug/kg, 90 min) 100%; under setting [7], 50%; under setting [8], 17%; (iv, 2.5 h, 2 mg/kg iv, AII .025 ug/kg, 150 min) 100%; under setting [9], 100%; under setting [10], 20%. For the same molecule, the inhibition in vivo at 2 mg/kg under setting [11] is 25%.

On to `CCCCc1nc2ccc(C(O)CC)cc2c(=O)n1Cc1ccc(-c2ccccc2-c2nnn[nH]2)cc1` (centres unmarked) [Example 52], for which the “Response change (systolic BP increase to AII)” value is given as 25 mmHg (5 mg/kg oral, AII .05 ug/kg, 30 min) and 15 mmHg (5 mg/kg oral, AII .05 ug/kg, 150 min). Further, the inhibition in vivo at 5 mg/kg worked out at 52% under setting [12]; 43% under setting [13]; 66% under setting [14]; 63% under setting [15]; 71% under setting [16]; 60% under setting [17].

`CCCCc1nc2ccc(C(C)(C)O)cc2c(=O)n1Cc1ccc(-c2ccccc2-c2nnn[nH]2)cc1` [Example 51, 2-butyl-6-(1-hydroxy-1-methylethyl)-3-[[2'-(1H-tetrazol-5-yl)-[1,1'-biphenyl]-4-yl]methyl]-4(3H)-quinazolinone] returned an inhibition in vivo at 5 mg/kg under setting [12] of 30%; an inhibition in vivo at 5 mg/kg under setting [13] of 26%; an inhibition in vivo at 5 mg/kg under setting [14] of 75%; an inhibition in vivo at 5 mg/kg under setting [15] of 55%; an inhibition in vivo at 5 mg/kg under setting [16] of 63%; an inhibition in vivo at 5 mg/kg under setting [17] of 46%.
